In patent US20150305333A1, “USE OF GLUCOSAMINE AMIDES AS PLANT GROWTH AND YIELD ENHANCERS” (PIONEER HI-BRED INTERNATIONAL, INC., priority 2012, published 2015):

Tests used:
[1] = tested on: canola (Brassica napus) Pioneer hybrid 45H29; assay: Canola field trials 2011: early growth, days to maturity, height, yield; format: in vivo; details: at plant maturity, averaged across three locations; NPG 10^−7 M, LCO/rhizobia at manufacturers' recommended rates
Experimental: Three canola (Brassica napus) field trials were conducted in the spring of 2011 to evaluate the effects of NPG on early growth, days to maturity, height and yield for Pioneer hybrid 45H29 planted at research sites near Carman, Neepawa, and Treherne (Manitoba, Canada) in 2011. Seed treatments included an Untreated Control, 10^−7 M NPG, and a mixture of a commercial LCO and rhizobia. An aqueous solution of NPG was applied at 0.25 L/100 kg seed by soaking the seeds in aqueous solutions of the respective treatments for 15 minutes followed by air drying on a tray. Untreated Control seeds were treated identically with the exception of being soaked in water without added NPG, LCO or rhizobia. The LCO/rhizobia mixture was applied to seeds at the manufacturers' recommended rates. […]
Early growth was scored on a 1-9 scale using a subjective evaluation of the ‘healthiness’ of plants and the soil surface area covered by their leaves when the plants are in the 4-6 leaf stage. […]
Days to maturity was measured from time of planting to physiological maturity, which was recorded in days from planting until the seeds in the pod, one third of the way up the main raceme, changed color to black in 50% of the plants in a given row or plot. […]
Plant height was measured at plant maturity. […]
Yield was measured in bushels per acre of mature seed. […]

[2] = tested on: corn seeds; assay: Petri dish seed germination assay, corn; format: in vivo
Experimental: A series of Petri dish seed assays was conducted to evaluate the effects NPG on the seed germination rates of corn, soybean, and canola seeds subjected to cold stress, salt stress and non-stressed conditions (salt stress only for canola). Assays were performed with ten replications of ten seeds/plate (100 total seeds). NPG was applied to seeds at the specified concentrations prior to being placed in Petri plates. Seeds designated for Salt Stress Experiments 1 & 2 were placed in Petri dishes containing a 100 mM NaCl solution and incubated at 21° C.-22° C. in the dark. Cold stress Petri dishes were incubated at 15° C. in the dark. Untreated Controls were incubated at 21° C.-22° C. in the dark as were seeds utilized in the separately conducted non-stressed germination assays. Data was recorded as percent germination at designated times after plating. Statistical analyses were performed using one-way Anova and Kruskal-Wallis one-way analysis of variance on rank combined with Dunn's all pairwise multiple comparison procedure (α=0.05).

## CCCCCCC=CCCCCCCCC(=O)NC1C(OC)OC(CO)C(O)C1O [NPG, Methyl 2-deoxy-2-N-(hexadece-9,10-cis-eneoyl)-β-D-glucopyranoside]
[1]
  Plant height: 114.2 cm
[2]; Cold Stress (15° C.), 10^−6M, 48 HAP
  Corn Seed Germination: 13ab %
[2]; Cold Stress (15° C.), 10^−6M, 56 HAP
  Corn Seed Germination: 52a %
[2]; Cold Stress (15° C.), 10^−6M, 65 HAP
  Corn Seed Germination: 100%
[2]; Cold Stress (15° C.), 10^−7M, 48 HAP
  Corn Seed Germination: 20ab %
[2]; Cold Stress (15° C.), 10^−7M, 56 HAP
  Corn Seed Germination: 52a %
[2]; Cold Stress (15° C.), 10^−7M, 65 HAP
  Corn Seed Germination: 100%
[2]; Non-Stressed, 10^−6M, 28 HAP
  Corn Seed Germination: 34a %
[2]; Non-Stressed, 10^−6M, 34 HAP
  Corn Seed Germination: 80a %
[2]; Non-Stressed, 10^−6M, 44 HAP
  Corn Seed Germination: 100a %
[2]; Salt Stress (100 mM NaCl) Experiment 2, 10^−6M, 32 HAP
  Corn Seed Germination: 20b %
[2]; Salt Stress (100 mM NaCl) Experiment 2, 10^−6M, 42 HAP
  Corn Seed Germination: 90a %
[2]; Salt Stress (100 mM NaCl) Experiment 2, 10^−7M, 32 HAP
  Corn Seed Germination: 44a %
[2]; Salt Stress (100 mM NaCl) Experiment 2, 10^−7M, 42 HAP
  Corn Seed Germination: 87a %
